Measurements from patent EP4624465A1, “COMPOUND SERVING AS DDR1 KINASE INHIBITOR, AND MEDICINE” (Nippon Shinyaku Co., Ltd., priority 2022, dated 2024).
“And” between values parts separate entries of the source, which are not always exact repeats. Identical values can stand only once. Counter-ions that a name gives are not always drawn.

How the values were obtained:
[1] = biological target: T1, DDR1 kinase (Homo sapiens, UniProt Q08345); assay: Evaluation of DDR1 kinase inhibition (LANCE Ultra TR-FRET kinase assay); assay type: biochemical; parameters: purchased Carna Biosciences 08-113; conditions: DDR1 protein 0.5 nM, LANCE Ultra ULight-poly GAT substrate, 2 hours at room temperature, duplicate; read-out: DDR-1 IC50
Target sequence in this assay (Q08345 19-876 isoform Q08345-2 limits assumed): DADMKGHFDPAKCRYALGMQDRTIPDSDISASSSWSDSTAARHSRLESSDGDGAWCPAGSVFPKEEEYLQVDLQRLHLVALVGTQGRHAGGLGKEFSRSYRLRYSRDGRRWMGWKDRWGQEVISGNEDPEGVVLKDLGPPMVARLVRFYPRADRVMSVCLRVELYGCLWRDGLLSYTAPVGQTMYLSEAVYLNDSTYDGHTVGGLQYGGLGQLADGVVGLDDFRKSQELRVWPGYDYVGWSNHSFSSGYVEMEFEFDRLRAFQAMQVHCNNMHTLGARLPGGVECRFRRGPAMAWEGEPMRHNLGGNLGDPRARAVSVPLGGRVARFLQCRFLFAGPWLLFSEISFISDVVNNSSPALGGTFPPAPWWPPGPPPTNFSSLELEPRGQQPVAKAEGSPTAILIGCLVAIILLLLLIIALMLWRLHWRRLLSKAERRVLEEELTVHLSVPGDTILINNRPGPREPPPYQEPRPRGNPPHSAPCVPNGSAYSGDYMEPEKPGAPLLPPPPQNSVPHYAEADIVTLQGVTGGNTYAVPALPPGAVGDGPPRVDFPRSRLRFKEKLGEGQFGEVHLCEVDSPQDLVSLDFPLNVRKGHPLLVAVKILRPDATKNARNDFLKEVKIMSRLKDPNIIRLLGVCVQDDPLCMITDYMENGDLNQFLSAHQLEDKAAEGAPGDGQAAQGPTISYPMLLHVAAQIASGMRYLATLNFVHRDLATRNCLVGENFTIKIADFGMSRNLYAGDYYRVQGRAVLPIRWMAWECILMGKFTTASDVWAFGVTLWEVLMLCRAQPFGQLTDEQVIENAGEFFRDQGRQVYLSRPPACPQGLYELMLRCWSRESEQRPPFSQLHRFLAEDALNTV

[2] = biological target: T1, DDR1 kinase; assay: Evaluation of DDR1 kinase inhibition in DDR1-expressing U2OS cells (type I collagen stimulation, PathHunter detection); assay type: cell-based; parameters: host or cells: U2OS; conditions: type I collagen 50 µg/mL stimulation, duplicate, read-out: DDR-1 IC50
Protocol: The solution was further diluted in an E-MEM medium (Fujifilm Wako Pure Chemicals, 051-07615) containing 10% fetal bovine serum (FBS, Gibco, 10270106) to 60000, 6000, 600, 60, 6, and 0.6 nM to prepare test substance solutions. 2. […] On the following day, after the plate was left at room temperature for 1 hour, a detection solution was added to the wells at […] according to the handling instructions for the PathHunter® Detection Kit (DiscoverX, 93-0001), and then incubated at room temperature for 2 hours. After the incubation, a luminescence intensity was measured by Envision (Perkin-Elmer). Tests were performed in duplicate. 3.
Target sequence in this assay (Q08345 19-913): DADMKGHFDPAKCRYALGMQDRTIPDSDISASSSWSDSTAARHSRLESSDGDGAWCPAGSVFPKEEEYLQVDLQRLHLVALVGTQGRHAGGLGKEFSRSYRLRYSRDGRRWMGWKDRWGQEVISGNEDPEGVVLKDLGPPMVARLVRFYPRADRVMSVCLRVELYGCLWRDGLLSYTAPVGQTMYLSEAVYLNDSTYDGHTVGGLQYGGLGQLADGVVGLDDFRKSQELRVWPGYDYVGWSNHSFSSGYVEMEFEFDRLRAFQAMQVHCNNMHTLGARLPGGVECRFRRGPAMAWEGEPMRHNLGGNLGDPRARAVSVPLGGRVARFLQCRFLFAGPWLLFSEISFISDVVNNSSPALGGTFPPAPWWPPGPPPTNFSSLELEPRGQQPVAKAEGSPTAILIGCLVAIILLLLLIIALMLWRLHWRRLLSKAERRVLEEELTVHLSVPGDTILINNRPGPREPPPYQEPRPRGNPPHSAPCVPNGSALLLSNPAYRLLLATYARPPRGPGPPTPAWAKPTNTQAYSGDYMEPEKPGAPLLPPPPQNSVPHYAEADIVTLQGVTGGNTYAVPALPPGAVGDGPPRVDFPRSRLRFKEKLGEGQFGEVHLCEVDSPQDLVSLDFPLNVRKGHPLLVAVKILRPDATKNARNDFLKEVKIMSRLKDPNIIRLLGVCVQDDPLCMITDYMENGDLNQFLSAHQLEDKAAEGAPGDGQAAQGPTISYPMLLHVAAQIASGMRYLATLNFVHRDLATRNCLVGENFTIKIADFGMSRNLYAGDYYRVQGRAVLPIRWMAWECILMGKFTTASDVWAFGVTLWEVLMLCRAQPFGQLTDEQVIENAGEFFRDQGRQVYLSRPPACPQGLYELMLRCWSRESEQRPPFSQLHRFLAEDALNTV

| SMILES | IC50 [1] | IC50 [2] |
| --- | --- | --- |
| CC(C)(C)NC(=O)Cn1nc(C2CN(C(=O)c3ccnc(N)c3)C2)c2c(F)cc(F)cc21 [Compound E-189, 2-(3-[1-(2-aminopyridine-4-carbonyl)azetidin-3-yl]-4,6-difluoro-1H-indazol-1-yl}-N-tert-butylacetamide] | 11 nM | 460 nM |
| Nc1cc(C(=O)N2CC(c3nn(CC(=O)N4CCO[C@@H](C(F)(F)F)C4)c4cc(F)cc(F)c34)C2)c(F)cn1 [Compound E-42, 2-{3-[1-(2-amino-5-fluoropyridine-4-carbonyl)azetidin-3-yl]-4,6-difluoro-1H-indazol-1-yl)-1-[(2R)-2-(trifluoromethyl)morpholin-4-yl]ethan-1-one] | 3.2 nM | 150 nM |
| Cc1nc(N)sc1C(=O)N1CC(c2nn(CC(=O)N3CCC[C@H]3C(F)(F)F)c3cc(F)cc(F)c23)C1 [Compound E-106] | 5.2 nM | 180 nM |
| O=C(Cn1nc(C2CN(C(=O)c3ccnc(NC4CC4)c3)C2)c2c(Cl)c(F)ccc21)NCC(F)(F)F [Compound E-1, 2-(4-chloro-3-{1-[2-(cycloropylamino)pyridine-4-carbonyl]azetidin-3-yl}-5-fluoro-1H-indazol-1-yl)-N-(2,2,2-trifluoroethyl)acetamide hydrochloride] | 0.4 nM | 78 nM |
| CC(C)N(C)C(=O)Cn1nc(C2CN(C(=O)c3cc(N)ncc3F)C2)c2ccccc21 [Compound E-253, 2-{3-[1-(2-amino-5-fluoropyridine-4-carbonyl)azetidin-3-yl]-1H. indazol-1-yl}-N-methyl-N-(propan-2-yl)acetamide] | 9.5 nM | 170 nM |
| CN(CC(F)(F)F)C(=O)Cn1nc(C2CN(C(=O)c3ccnc(N)c3)C2)c2ccccc21 [Compound E-45, 2-{3-[1-(2-aminopyridine-4-carbonyl)azetidin-3-yl]-1H-indazol-1-yl}-N-methyl-N-(2,2,2-trifluoroethyl)acetamide] | 4.4 nM | 140 nM |
| Nc1ncc(F)c(C(=O)N2CC(c3nn(CC(=O)N4CCC[C@H]4C(F)(F)F)c4ccccc34)C2)n1 [Compound E-22, 2-{3-[1-(2-amino-5-fluoropyrimidine-4-carbonyl)azetidin-3-yl]-1H-indazol-1-yl}-1-[(2S)-2-(trifluoromethyl)pyrrolidin-1-yl]ethan-1-one] | 5.6 nM | 18 nM |
| CC1(C)COCCN1C(=O)Cn1nc(C2CN(C(=O)c3ccnc(N)c3)C2)c2ccccc21 [Compound E-188, 2-{3-[1-(2-aminopyridine-4-carbonyl)azetidin-3-yl]-1H-indazol-1-yl}-1-(3,3-dimethylmorpholin-4-yl)ethan-1-one] | 7.9 nM | 89 nM |
| Nc1cc(C(=O)N2CC(c3nn(CC(=O)N4CCC[C@H]4C(F)(F)F)c4ccc(Cl)cc34)C2)c(F)cn1 [Compound E-206, 2-{3-[1-(2-amino-5-fluoropyridine-4-carbonyl)azetidin-3-yl}-5-chloro-1H-indazol-1-yl}-1-[(2S)-2-(trifluoromethyl)pyrrolidin-1-yl]ethan-1-one] | 1.6 nM | 6 nM |
| O=C(c1ccnc(NC2CC2)c1)N1CC(c2nn(CC(=O)N3CCC[C@H]3C(F)(F)F)c3cccnc23)C1 [Compound E-121, 2-(3-{1-[2-(cyclopropylamino)pyridine-4-carbonyl]azetidin-3-yl}-1H-pyrazolo[4,3-b]pyridin-1-yl)-1-[(2S)-2-(trifluoromethyl)pyrrolidin-1-yl]ethan-1-one] | 24 nM | 170 nM |
| Nc1nccc(C(=O)N2CC(c3nn(CC(=O)N4CCO[C@@H](C(F)(F)F)C4)c4ccccc34)C2)c1F [Compound E-194, 2-{3-[1-(2-amino-3-fluoropyridine-4-carbonyl)azetidin-3-yl]-1H-indazol-1-y1}-1-[(2R)-2-(trifluoromethyl)morpholin-4-yl]ethan-1-one] | 4.8 nM | 370 nM |
| Nc1cc(C(=O)N2CC(c3nn(Cc4cn(CC5CC5)nn4)c4cccc(F)c34)C2)ccn1 [Compound E-37, 4-[3-(1-{[1-(cyclopropylmethyl)-1H-1,2,3-triazol-4-yl]methyl}-4-fluoro-1H-indazol-3-yl)azetidine-1-carbonyl]pyridin-2-amine hydrochloride] | 50 nM | 2600 nM |
| Nc1cc(C(=O)N2CC(c3nn(CC(=O)N4CCO[C@@H](C(F)(F)F)C4)c4cncc(F)c34)C2)ccn1 [Compound E-100] | 34 nM | 110 nM |
| Cc1ccc2c(n1)c(C1CN(C(=O)c3cc(N)ncc3F)C1)nn2CC(=O)N1CCOC(C(F)(F)F)C1 [Compound E-185, 2-{3-[1-(2-amino-5-fluoropyridine-4-carbonyl)azetidin-3-yl]-5-methyl-1H-pyrazolo(4,3-blpyridin-1-yl}-1-[{(2R)-2-(trifluoromethyl)morpholin-4-yl]ethan-1-one p-toluenesulfonate] | 22 nM | 3300 nM |
| Nc1cc(C(=O)N2CC(c3nn(CC(=O)NCC(F)F)c4cccc(F)c34)C2)ccn1 [Compound E-242, 2-{3-[1-(2-aminopyridine-4-carbonyl)azetidin-3-yl]-4-fluoro-1H-indazol-1-yl}-N-(2,2-difluoroethyl)acetamide] | 30 nM | 740 nM |
| CC(C)[C@@H]1COCCN1C(=O)Cn1nc(C2CN(C(=O)c3ccnc(N)c3)C2)c2c(F)cc(F)cc21 [Compound E-83, 2-{3-[1-(2-aminopyridine-4-carbonyl)azetidin-3-yl]-4,6-difluoro-1H-indazol-1-yl]-1-[(3R)-3-(propan-2-yl)morpholin-4-yl]ethan-1-one] | 0.3 nM | 74 nM |
| CN(C(=O)Cn1nc(C2CN(C(=O)c3cc(N)ncc3F)C2)c2ccccc21)C1CC(F)(F)C1 [Compound E-250, 2-{3-[1-(2-amino-5-fluoropyridine-4-carbonyl)azetidin-3-yl]-1H-indazol-1-yl}-N-(3,3-difluorocyclobutyl)-N-methylacetamide] | 2 nM | 17 nM |
| Nc1cc(C(=O)N2CC(c3nn(Cc4cn(CC5CCC5)nn4)c4cccc(F)c34)C2)ccn1 [Compound E-92, 4-[3-(1-{[1-(cyclobutylmethyl)-1H-1,2,3-triazol-4-yl]methyl}-4-fluoro-1H-indazol-3-yl)azetidine-1-carbonyl]pyridin-2-amine hydrochloride] | 71 nM | 1400 nM |
| N#C[C@@H]1CCCN1C(=O)Cn1nc(C2CN(C(=O)c3cc(N)ncc3F)C2)c2ccccc21 [Compound E-236] | 4.8 nM | 120 nM |
| Nc1cc(C(=O)N2CC(c3nn(Cc4noc(-c5ccc(F)cc5)n4)c4cccc(F)c34)C2)ccn1 [Compound E-116, 4-[3-(4-fluoro-1-{[5-(4-fluorophenyl)-1,2,4-oxadiazol-3-yl]methyl}-1H-indazol-3-yl)azetidine-1-carbonyl]pyridin-2-amine] | 4.4 nM | 800 nM |
| Nc1cc(C(=O)N2CC(c3nn(C(F)C(=O)N4CCC[C@H]4C(F)(F)F)c4cc(F)cc(F)c34)C2)ccn1 (stereo partly drawn) [Compound E-107, 2-{3-[1-(2-aminopyridine-4-carbonyl)azetidin-3-yl]-4,6-difluoro-1H-indazol-1-yl}-2-fluoro-1-[(2S)-2-(trifluoromethyl)pyrrolidin-1-yl]ethan-1-one] | 91 nM | 670 nM |
| Nc1cc(C(=O)N2CC(c3nn(CC(=O)N4CCC[C@@H]4C(F)(F)F)c4cc(F)cc(F)c34)C2)ccn1 [Compound E-50, 2-{3-[1-(2-aminopyridine-4-carbonyl)azetidin-3-yl]-4,6-difluoro-1H-indazol-1-yl]-1-[(2R)-2-(trifluoromethyl)pyrrolidin-1-yl]ethan-1-one] | 28 nM | 1900 nM |
| Cn1nccc1NC(=O)Cn1nc(C2CN(C(=O)c3cc(N)ncc3F)C2)c2ccccc21 [Compound E-247, 2-{3-[1-(2-amino-5-fluoropyridine-4-carbonyl)azetidin-8-yl]-1H-indazol-1-yl}-N-(1-methyl-1H-pyrazol-5-yl)acetamide] | 47 nM | 300 nM |
| O=C(Cn1nc(C2CN(C(=O)c3ccnc4[nH]ccc34)C2)c2c(Cl)cccc21)NCC(F)(F)F [Compound E-61] | 2.8 nM | 960 nM and 1600 nM |
| CNc1cc(C(=O)N2CC(c3nn(CC(=O)NCC(F)(F)F)c4cccc(Cl)c34)C2)ccn1 [Compound E-63, 2-(4-chloro-3-{1-[2-(methylamino)pyridine-4-carbonyl]azetidin-3-yl]-1H-indazol-1-yl)-N-(2,2,2-trifluoroethyl)acetamide] | 4.3 nM | 140 nM |
| CN(C(=O)Cn1nc(C2CN(C(=O)c3cc(N)ncc3F)C2)c2ccccc21)C1COC1 [Compound E-254, 2-{3-{1-(2-amino-5-fluoropyridine-4-carbonyl)azetidin-3-yl]-1H-indazol-1-yl}-N-methyl-N-(oxetan-3-yl)acetamide] | 21 nM | 390 nM |
| Nc1cc(C(=O)N2CC(c3nn(Cc4nc(-c5cccc(C(F)(F)F)c5)no4)c4cccc(F)c34)C2)ccn1 [Compound E-55, 4-{3-[4-fluoro-1-({3-[3-(trifluoromethyl)phenyl]-1,2,4-oxadiazol-5-yl}methyl)-1H-indazol-3-yl]azetidine-1-carbonyl}pyridin-2-amine] | 23 nM | 150 nM |
| Nc1cc(C(=O)N2CC(c3nn(Cc4nc(-c5ccc(F)cc5)no4)c4cccc(F)c34)C2)ccn1 [Compound E-104, 4-[3-(4-fluoro-1-{[3-(4-fluorophenyl)-1,2,4-oxadiazol-5-yl]methyl}-1H-indazol-3-yl)azetidine,1-carbonyl)pyridin-2-amine] | 5.2 nM | 110 nM |
